Data on one compound can be found in patent US11021500B2, “Process for preparing optically active 2,3-bisphosphino-substituted quinoxalines” (Nippon Chemical Industrial Co., Ltd., priority 2017, dated 2021).

SMILES strings stand for the structures.

Broadly, the melting point is the temperature of the solid-liquid transition.

The compound `C[P@@](c1nc2ccccc2nc1[P@](C)C(C)(C)C)C(C)(C)C` [Compound (a3), (R,R)-2,3-bis(tert-butylmethylphosphino)quinoxaline] yielded a melting point of 102 to 103 °C.
